Data from publication PMC11911205 (Frontiers in Pharmacology, 2025).
Read-outs that look alike come from different tables or passages of the source.

Experiments:
[1] = biological target: human liver microsomes (HLM) (Homo sapiens, UniProt P08684)
Procedure: (§1) Considering that RLM or HLM microsome may have different metabolic rates, we conducted experiments on enzyme and incubation time before the start of the experiment. […] A rate-time graph was created to select the most suitable concentration and incubation time within the linear range of variation. […] The drug was dissolved in DMSO.
(§2) The relationship between reaction rate and substrate concentration based on the Michaelis-Menten equation was calculated, and the Km value through nonlinear fitting was determined. […] The relationship between inhibitor concentration and reaction rate was plotted after the reaction rate at different inhibitor concentrations was determined, and then the IC50 value through nonlinear regression analysis was calculated. […] The above mixture was incubated at 37°C for 5 min, after which NADPH was added to start the reaction process for 30 min, and it was finally cooled to −80°C to stop the reaction. 400 μL of acetonitrile and 20 μL of IS working solution (200 ng/mL) were incorporated into the mixture. Following vortexed and centrifugated at 13,000 rpm for 10 min, the supernatant was obtained for UPLC-MS/MS analysis.
(§3) Km, IC50, Lineweaver-Burk plots and mean plasma concentration-time curves were generated using GraphPad Prism 9.5 software. […] SPSS (version 26.0; SPSS Inc., Chicago, IL, United States) was used for data processing, and t-test was employed to determine whether there was a significant difference.

[2] = tested on: rat liver microsomes (RLM); test: Vandetanib metabolism (N-demethyl vandetanib formation) and its inhibition by luteolin in rat liver microsomes; conditions: RLM, Lineweaver-Burk plot
Procedure: as §1, §2, §3

[3] = tested on: vandetanib metabolism (N-demethyl vandetanib formation) in rat liver microsomes; test: as above; conditions: rat, rat liver microsomes, pH 7.4, probe vandetanib at its Km value in RLM
Procedure: as §1, §2, §3

[4] = biological target: vandetanib metabolism (N-demethyl vandetanib formation) in human liver microsomes (Homo sapiens, UniProt P08684); test: Vandetanib metabolism (N-demethyl vandetanib formation) and its inhibition by luteolin in human liver microsomes; conditions: pH 7.4
Chain of vandetanib metabolism (N-demethyl vandetanib formation) in human liver microsomes (P08684 2-503): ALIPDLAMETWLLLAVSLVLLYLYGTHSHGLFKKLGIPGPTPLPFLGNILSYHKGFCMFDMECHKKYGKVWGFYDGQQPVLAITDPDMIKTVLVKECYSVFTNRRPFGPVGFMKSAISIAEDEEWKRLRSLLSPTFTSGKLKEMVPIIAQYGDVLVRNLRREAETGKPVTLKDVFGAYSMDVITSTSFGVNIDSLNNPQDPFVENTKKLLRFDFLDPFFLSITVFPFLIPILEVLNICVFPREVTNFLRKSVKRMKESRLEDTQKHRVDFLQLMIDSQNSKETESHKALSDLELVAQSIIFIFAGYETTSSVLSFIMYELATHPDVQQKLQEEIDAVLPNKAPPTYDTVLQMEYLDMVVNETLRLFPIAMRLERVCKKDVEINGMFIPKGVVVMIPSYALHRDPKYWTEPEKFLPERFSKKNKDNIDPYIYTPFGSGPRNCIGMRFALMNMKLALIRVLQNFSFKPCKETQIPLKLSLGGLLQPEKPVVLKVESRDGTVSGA
Procedure: as §1, §2, §3

[5] = Pharmacokinetics of vandetanib and N-demethyl vandetanib in SD rats with or without luteolin (UPLC-MS/MS of plasma); type: in vivo, Sprague-Dawley (SD) rats; conditions: for AUC(0-t) / AUC(0-∞) / CLz/F / Cmax / Tmax / t1/2 / AUC(0-inf) / half-life / CL/F: plasma; for CL/F: read-out: CLz/F (converted)
Procedure: Male SD rats weighing 180–220 g were provided by the Laboratory Animal Center of the First Affiliated Hospital of Wenzhou Medical University (Zhejiang, China). They were housed under standard conditions with a temperature of 20°C–26°C, a relative humidity of 55% ± 15%, and a 12-h dark/light cycle. The rats had free access to water and no other drugs were given during the feeding period, and were prohibited from eating for 12 h before the experiment. The experimental procedures and protocols were in accordance with animal ethics standards and approved by the Institutional Animal Care and Use Committee of the First Affiliated Hospital of Wenzhou Medical University (Zhejiang, China).
Therefore, we adopted the same dosages to ensure the comparability and validity of the experimental results. 0.3 mL tail vein blood was collected at 0.5, 1, 1.5, 2, 3, 4, 6, 8, 12, 24, 48 and 80 h post-vandetanib administration. The blood samples were centrifuged at 4°C at 13,000 rpm for 10 min to obtain plasma, which was aspirated and stored at −80°C until analysis.

[6] = parameters: method as in Martin et al., 2011; conditions: ref Martin et al., 2011, cited from earlier work
in vitro = conditions: rat, pH 7.4
Procedure: as §1, §2, §3

[7] = parameters: method as in Indra et al., 2020; conditions: ref Indra et al., 2020; cited from earlier work
[8] = inhibition of vandetanib metabolism
[9] = luteolin 30 mg/kg by gavage 30 min before vandetanib 25 mg/kg by gavage
[10] = vandetanib 25 mg/kg by gavage alone (control group)
[11] = luteolin 30 mg/kg + vandetanib 25 mg/kg vs vandetanib alone
[12] = male, Sprague-Dawley, rat, po, 25 mg/kg, luteolin 30 mg/kg by gavage 30 min before vandetanib 25 mg/kg by gavage
[13] = male, Sprague-Dawley, rat, po, 25 mg/kg, vandetanib 25 mg/kg by gavage alone (control group)

Chain of human liver microsomes (HLM) (P08684 2-503): as above

For O=c1cc(-c2ccc(O)c(O)c2)oc2cc(O)cc(O)c12 [Luteolin], the inhibition type [1] was “mixture of non-competitive and un-competitive”, the α [1] was 0.28 µM and the inhibition mechanism [2] was “mixture of non-competitive inhibition and competitive inhibition”. The Ki [2, 8] was 2.33 µM, the α [2, 8] was 6.68 µM and the IC50 at 30 min [3] was 8.56 µM. It also gave an IC50 at 30 min [4] of 15.8 µM.
For COc1cc2c(Nc3ccc(Br)cc3F)ncnc2cc1OCC1CCNCC1 [N-demethyl vandetanib], the “AUC(0-t)” value [5, 9] was 998.82 ± 276.65 ng·h/mL, the “AUC(0-∞)” value [5, 9] was 1,118.64 ± 320.66 μg/L*h and the CLz/F [5, 9] was 397.2 ± 108 mL/min/kg. It also gave a Cmax [5, 9] of 22.41 ± 5.84 ng/mL, a Tmax [5, 9] of 11.20 ± 1.79 h and a t1/2 [5, 9] of 24.33 ± 5.63 h. The “AUC(0-t)” value [5, 10] was 938.88 ± 144.07 ng·h/mL, the “AUC(0-∞)” value [5, 10] was 1,163.14 ± 157.34 μg/L*h and the CLz/F [5, 10] was 363.8 ± 51.7 mL/min/kg. For the same molecule, the Cmax [5, 10] was 19.56 ± 3.03 ng/mL, the Tmax [5, 10] was 14.40 ± 5.37 h and the t1/2 [5, 10] was 34.04 ± 15.69 h.
In the case of COc1cc2c(Nc3ccc(Br)cc3F)ncnc2cc1OCC1CCN(C)CC1 [Vandetanib], the “increase of AUC(0-t) of vandetanib in luteolin group compared with the control group” value [5, 11] is reported as 18.1%, the “increase of Cmax of vandetanib in luteolin group compared with the control group” value [5, 11] is reported as 32.8% and the AUC(0-inf) [5, 12] is reported as 41100 ng·h/mL. It also gave a half-life [5, 12] of 23 ± 4.02 h, an AUC(0-t) ([5]; male, Sprague-Dawley, rat, po, 25 mg/kg, luteolin 30 mg/kg by gavage 30 min before vandetanib 25 mg/kg by gavage, read-out: AUC(0-t)) of 37100 ng·h/mL and a CL/F [5, 12] of 10.2 mL/min/kg. It also gave a Cmax ([5]; male, Sprague-Dawley, rat, po, 25 mg/kg, luteolin 30 mg/kg by gavage 30 min before vandetanib 25 mg/kg by gavage, read-out: Cmax) of 1140 ng/mL, a Tmax ([5]; male, Sprague-Dawley, rat, po, 25 mg/kg, luteolin 30 mg/kg by gavage 30 min before vandetanib 25 mg/kg by gavage, read-out: Tmax) of 7.6 ± 2.61 h and an AUC(0-inf) [5, 13] of 36100 ng·h/mL. For the same molecule, the half-life [5, 13] was 26.6 ± 4.35 h, the AUC(0-t) ([5]; male, Sprague-Dawley, rat, po, 25 mg/kg, vandetanib 25 mg/kg by gavage alone (control group), read-out: AUC(0-t)) was 31400 ng·h/mL and the CL/F [5, 13] was 11.7 mL/min/kg. For the same molecule, the Cmax ([5]; male, Sprague-Dawley, rat, po, 25 mg/kg, vandetanib 25 mg/kg by gavage alone (control group), read-out: Cmax) was 859 ± 125 ng/mL, the Tmax ([5]; male, Sprague-Dawley, rat, po, 25 mg/kg, vandetanib 25 mg/kg by gavage alone (control group), read-out: Tmax) was 8.8 ± 3.03 h and the “levels of vandetanib exposure” value ([6]; combined with itraconazole, a potent CYP3A4 inhibitor) was “increased”. The AUC of vandetanib ([6]; combined with rifampicin, a strong inducer of CYP3A4) was “significantly decreased” and the Km at 30 min (in vitro) was 9.41 µM.
For COc1cc2c(Nc3ccc(Br)cc3F)ncnc2cc1OCC1CC[N+](C)([O-])CC1 (stereo not shown) [vandetanib N-oxide], the “less activity compared to the original compound (vandetanib)” value [7] is given as “over 50 times”.
